Test results as given in patent US20260191968A1, “PROTAC DEGRADERS OF MLLT1 AND/OR MLLT3” (DARK BLUE THERAPEUTICS LTD, priority 2024, published 2026).

How the values were obtained:
MLLT1 = biological target: T1, MLLT1 (Homo sapiens, UniProt Q03111); experiment: MLLT1 degradation assay in MV4-11 cells (JESS chemiluminescent detection), three concentrations, 24 h; assay type: cell-based; conditions: with respect to DMSO control
T1 construct: host or cells: MV4-11
T1 sequence (Q03111 1-559): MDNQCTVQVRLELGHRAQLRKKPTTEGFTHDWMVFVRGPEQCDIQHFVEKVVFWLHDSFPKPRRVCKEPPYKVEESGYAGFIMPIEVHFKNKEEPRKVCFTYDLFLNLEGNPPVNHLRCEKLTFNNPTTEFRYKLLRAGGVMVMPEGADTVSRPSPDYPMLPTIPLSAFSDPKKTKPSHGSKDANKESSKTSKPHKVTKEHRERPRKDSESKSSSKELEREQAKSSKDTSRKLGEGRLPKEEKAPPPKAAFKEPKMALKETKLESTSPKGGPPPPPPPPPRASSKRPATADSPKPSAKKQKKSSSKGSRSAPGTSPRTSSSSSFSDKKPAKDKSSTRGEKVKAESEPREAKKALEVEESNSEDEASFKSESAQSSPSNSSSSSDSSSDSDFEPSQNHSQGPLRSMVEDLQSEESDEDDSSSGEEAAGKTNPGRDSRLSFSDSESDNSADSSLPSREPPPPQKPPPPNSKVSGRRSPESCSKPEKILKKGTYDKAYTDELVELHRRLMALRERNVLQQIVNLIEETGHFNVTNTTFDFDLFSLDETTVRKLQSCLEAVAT
Summary of the method: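 Read-out is % MLLT1 degradation versus DMSO, from band peak areas on a JESS chemiluminescent system. Cells (MV4-11) were exposed for 24 h at 37° C to three compound levels, 10, 100 and 1000 nM, in 0.1% DMSO.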

MV4-11 cells = experiment: MV4-11 cellular proliferative assay, Assay Format B (CTG 2.0, 168 h); assay type: cell-based; conditions: Homo sapiens, 168 h (7 days), CTG 2.0, read-out: IC50 (MV4-11 cellular proliferative assay, Assay format B)
Protocol: MV4-11 cells at a confluency of ~50-80% was used for cell growth assay. 600 cells/well in a 384-well opaque cell culture plate (6007680; Perkin Elmer) were seeded in 40 μL of complete medium (IMDM+10% FBS+1X Penicillin-Streptomycin). Cells were incubated overnight at 37° C., 5% CO2. 10 mM DMSO stocks were prepared, cells were treated with 10 concentrations of test compounds starting from 1 uM or 100 nM, 3-fold dilution in 10 uL (5×concentration) of complete medium. Final DMSO concentration was 0.3%. Culture plates were centrifuged at 40×g, 30s. Cells were incubated with compounds for 168 h (7 days). After 7 days, 20 uL CTG 2.0 reagent (G9242; Promega) was added per well and luminescence reading was taken in Envision Xcite 2105 multimode plate reader. Data was analyzed in GraphPad Prism 10.0 and data was shown as % viability with respect to DMSO control and dose-response curves were generated using four parameter logistic regression. Assay quality was determined by z-factor calculation using positive and negative controls.

Row | SMILES | MLLT1% Degradation @ 0.01 μM (MLLT1) | MLLT1% Degradation @ 0.1 μM (MLLT1) | MLLT1% Degradation @ 1 μM (MLLT1) | IC50 (MV4-11 cells) [µM]
1 | CN1CCC[C@@H]1c1cc2cnc(NC(=O)c3ccc(CCCC4CCN(c5cccc6c5CN([C@H]5CCC(=O)NC5=O)C6=O)CC4)cc3F)cc2[nH]1 (relative stereo) [Example 175, 4-(3-(1-(2-((rel-S)-2,6-dioxopiperidin-3-yl)-1-oxoisoindolin-4-yl)piperidin-4-yl)propyl)-2-fluoro-N-(2-((R)-1-methylpyrrolidin-2-yl)-1H-pyrrolo[3,2-c]pyridin-6-yl)benzamide] | A (Category A: A ≥ 75% degradation) | A (Category A: A ≥ 75% degradation) | A (Category A: A ≥ 75% degradation) | ≤ 0.1
2 | CN1CCC[C@@H]1c1cc2cnc(NC(=O)c3ccc(CCCC4CCN(c5cccc6c5CN([C@@H]5CCC(=O)NC5=O)C6=O)CC4)cc3F)cc2[nH]1 (relative stereo) [Example 176, 4-(3-(1-(2-((rel-R)-2,6-dioxopiperidin-3-yl)-1-oxoisoindolin-4-yl)piperidin-4-yl)propyl)-2-fluoro-N-(2-((R)-1-methylpyrrolidin-2-yl)-1H-pyrrolo[3,2-c]pyridin-6-yl)benzamide] | A (Category A: A ≥ 75% degradation) | A (Category A: A ≥ 75% degradation) | A (Category A: A ≥ 75% degradation) | ≤ 0.1
3 | CN1CCC[C@@H]1c1[nH]c2cc(NC(=O)c3ccc(OCCC4CCN(c5cccc6c5CN(C5CCC(=O)NC5=O)C6=O)CC4)cc3)ncc2c1Cl (stereo in doubt) [Example 161, N-(3-chloro-2-((R)-1-methylpyrrolidin-2-yl)-1H-pyrrolo[3,2-c]pyridin-6-yl)-4-(2-(1-(2-((rel-S)-2,6-dioxopiperidin-3-yl)-1-oxoisoindolin-4-yl)piperidin-4-yl)ethoxy)benzamide] | A (Category A: A ≥ 75% degradation) | A (Category A: A ≥ 75% degradation) | A (Category A: A ≥ 75% degradation) | ≤ 0.1
4 | CN1CCC[C@@H]1c1cc2cnc(NC(=O)c3ccc(OCCC4CCN(c5cccc6c5CN(C5CCC(=O)NC5=O)C6=O)CC4)cc3F)cc2[nH]1 (stereo in doubt) [Example 172, 4-(2-(1-(2-((rel-S)-2,6-dioxopiperidin-3-yl)-1-oxoisoindolin-4-yl)piperidin-4-yl)ethoxy)-2-fluoro-N-(2-((R)-1-methylpyrrolidin-2-yl)-1H-pyrrolo[3,2-c]pyridin-6-yl)benzamide] | A (Category A: A ≥ 75% degradation) | A (Category A: A ≥ 75% degradation) | A (Category A: A ≥ 75% degradation) | ≤ 0.1

Continued, values first:

Row | MLLT1% Degradation @ 0.01 μM (MLLT1) | MLLT1% Degradation @ 0.1 μM (MLLT1) | MLLT1% Degradation @ 1 μM (MLLT1) | IC50 (MV4-11 cells) [µM] | SMILES
5 | A (Category A: A ≥ 75% degradation) | A (Category A: A ≥ 75% degradation) | A (Category A: A ≥ 75% degradation) | ≤ 0.1 | CN1CCC[C@@H]1c1cc2cnc(NC(=O)c3ccc(CCCC4CCN(c5cccc6c5CN(C5CCC(=O)NC5=O)C6=O)CC4)cc3)cc2[nH]1 (stereo in doubt) [Example 77, 4-(3-(1-(2-((rel-S)-2,6-dioxopiperidin-3-yl)-1-oxoisoindolin-4-yl)piperidin-4-yl)propyl)-N-(2-((R)-1-methylpyrrolidin-2-yl)-1H-pyrrolo[3,2-c]pyridin-6-yl)benzamide]
6 | A (Category A: A ≥ 75% degradation) | A (Category A: A ≥ 75% degradation) | A (Category A: A ≥ 75% degradation) | ≤ 0.1 | CN1CCC[C@@H]1c1cc2cnc(NC(=O)c3ccc(OC4CCN(CC5CCN(c6cccc7c6CN(C6CCC(=O)NC6=O)C7=O)CC5)CC4)cc3)cc2[nH]1 (stereo in doubt) [Example 122, 4-((1-((1-(2-((rel-S)-2,6-dioxopiperidin-3-yl)-1-oxoisoindolin-4-yl)piperidin-4-yl)methyl)piperidin-4-yl)oxy)-N-(2-((R)-1-methylpyrrolidin-2-yl)-1H-pyrrolo[3,2-c]pyridin-6-yl)benzamide]
